# Laboratory results: patent publication US20250154134A1, “COMPOUND AS FAK INHIBITOR AND USE THEREOF” (WIGEN BIOMEDICINE TECHNOLOGY (SHANGHAI) CO., LTD., priority 2022, published 2025)
# Tests used:
# FAK recombinant protein = FAK recombinant protein (Homo sapiens (Human), UniProt Q05397); assay: Inhibitory activity against FAK enzyme (HTRF, TK substrate); type: biochemical
# Description: A compound serially diluted with DMSO was mixed with a FAK recombinant protein. After the mixture was left to stand at room temperature for 10 min, a biotin-labeled TK substrate (TK) and ATP were added. […] The inhibition percentage and IC50 of the compound were calculated compared to the DMSO control group.
# PC3 cells [1] = assay: PC3 cell proliferation, 2D activity assay (Cell Titer-Lumi, 72 h); type: cell-based, human; conditions: Homo sapiens, PC-3, read-out: 2D inhibitory activity against PC3 cells IC50
# Description: (§1) 2D activity assay: 1200 PC3 cells were seeded in a 96-well plate. After overnight adherence culture, A compound serially diluted was added. […] The growth of the cells was evaluated, and the IC50 of the compound inhibiting cell growth was calculated. 3D activity assay: PC3 cells were seeded in a 96-well plate at 1200 cells/well, and 3D culture was performed. 14 days after a compound serially diluted was added, the growth of the cells was measured. The inhibition percentage and IC50 of the compound were calculated compared to the DMSO control group.
# PC3 cells [2] = assay: PC3 cell proliferation, 3D activity assay (3D culture, 14 days); type: cell-based, human; conditions: Homo sapiens, PC-3, 336 h, read-out: 3D inhibitory activity against PC3 cells IC50
# Description: as §1
# Sequence of FAK recombinant protein (Q05397 whole entry): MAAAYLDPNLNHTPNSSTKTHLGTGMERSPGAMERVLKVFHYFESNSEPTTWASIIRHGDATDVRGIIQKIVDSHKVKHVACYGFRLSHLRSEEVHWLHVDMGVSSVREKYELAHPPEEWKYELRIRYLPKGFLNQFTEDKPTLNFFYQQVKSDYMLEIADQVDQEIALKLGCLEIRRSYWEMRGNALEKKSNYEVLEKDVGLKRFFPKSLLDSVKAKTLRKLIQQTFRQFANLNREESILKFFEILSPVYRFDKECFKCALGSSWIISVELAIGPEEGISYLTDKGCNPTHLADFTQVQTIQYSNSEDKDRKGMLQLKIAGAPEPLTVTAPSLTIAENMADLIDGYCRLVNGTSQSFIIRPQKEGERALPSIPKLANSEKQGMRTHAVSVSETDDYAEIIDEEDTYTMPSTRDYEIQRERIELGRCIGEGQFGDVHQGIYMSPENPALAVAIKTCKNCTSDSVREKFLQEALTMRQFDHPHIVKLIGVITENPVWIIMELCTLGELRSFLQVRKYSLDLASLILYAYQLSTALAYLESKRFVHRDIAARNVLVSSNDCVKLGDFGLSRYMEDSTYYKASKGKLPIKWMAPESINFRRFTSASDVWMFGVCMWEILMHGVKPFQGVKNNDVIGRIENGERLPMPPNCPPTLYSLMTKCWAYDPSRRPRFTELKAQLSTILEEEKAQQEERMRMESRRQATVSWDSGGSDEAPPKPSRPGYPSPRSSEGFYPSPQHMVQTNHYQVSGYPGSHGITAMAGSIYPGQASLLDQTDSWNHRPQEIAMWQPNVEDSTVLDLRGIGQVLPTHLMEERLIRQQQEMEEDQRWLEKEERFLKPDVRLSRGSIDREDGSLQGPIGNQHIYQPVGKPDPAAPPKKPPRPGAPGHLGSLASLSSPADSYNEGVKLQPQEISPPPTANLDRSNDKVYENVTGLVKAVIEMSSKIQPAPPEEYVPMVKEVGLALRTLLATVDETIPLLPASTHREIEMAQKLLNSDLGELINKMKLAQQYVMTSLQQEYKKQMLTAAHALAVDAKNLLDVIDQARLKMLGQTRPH
Compound,IC50 (FAK recombinant protein),IC50 (PC3 cells [1]),IC50 (PC3 cells [2])
[2H]C([2H])([2H])N1CCC2(CC1)CC(NC(=O)c1cc(OC)c(Nc3ncc(C(F)(F)F)c(Oc4cccc5c4C(=O)N(C)C54CC4)n3)cc1F)C2 [Compound 47],< 20 nM,> 2000 nM,< 5 nM
CCN1CCC2(CC1)CC(NC(=O)c1cc(OC)c(Nc3ncc(C(F)(F)F)c(Oc4cccc5c4C(=O)N(C)C54CC4)n3)cc1F)C2 [Compound 48],< 20 nM,> 2000 nM,5 to 50 nM
C=Cc1cc(C(=O)NC2CCN(C)CC2)ccc1Nc1ncc(C(F)(F)F)c(Oc2cccc3c2C(=O)N(C)C32CC2)n1 [Compound 49],< 20 nM,> 2000 nM,5 to 50 nM
CCc1cc(C(=O)NC2CCN(C)CC2)ccc1Nc1ncc(C(F)(F)F)c(Oc2cccc3c2C(=O)N(C)C32CC2)n1 [Compound 50],< 20 nM,> 2000 nM,5 to 50 nM
CCc1cc(C(=O)NC2CCN(C)CC2)c(F)cc1Nc1ncc(C(F)(F)F)c(Oc2cccc3c2C(=O)N(C)C32CC2)n1 [Compound 51],< 20 nM,> 2000 nM,5 to 50 nM
CCc1cc(C(=O)NC2CC3(CCN(C)CC3)C2)ccc1Nc1ncc(C(F)(F)F)c(Oc2cccc3c2C(=O)N(C)C32CC2)n1 [Compound 52],< 20 nM,> 2000 nM,< 5 nM
CN1CCC(NC(=O)c2ccc(Nc3ncc(C(F)(F)F)c(Oc4cccc5c4C(=O)N(C)C54CC4)n3)c(OC(F)(F)F)c2)CC1 [Compound 53],< 20 nM,> 2000 nM,5 to 50 nM
COc1cc(C(=O)NC2CCN(C)CC2)c(-c2cnn(C)c2)cc1Nc1ncc(C(F)(F)F)c(Oc2cccc3c2C(=O)N(C)C32CC2)n1 [Compound 54],< 20 nM,> 2000 nM,< 5 nM
COc1cc(C(=O)N2CC3(CCN(C)CC3)C2)ccc1Nc1ncc(C(F)(F)F)c(Oc2cccc3c2C(=O)N(C)C32CC2)n1 [Compound 55],< 20 nM,> 2000 nM,5 to 50 nM
COc1cc(C(=O)N2CCC3(CCN(C)CC3)CC2)ccc1Nc1ncc(C(F)(F)F)c(Oc2cccc3c2C(=O)N(C)C32CC2)n1 [Compound 56],< 20 nM,> 2000 nM,> 50 nM
COc1cc(C(=O)N2CCC3(CCN(C)C3)C2)ccc1Nc1ncc(C(F)(F)F)c(Oc2cccc3c2C(=O)N(C)C32CC2)n1 (stereo not drawn) [Compound 57],< 20 nM,> 2000 nM,5 to 50 nM

# The remaining lines, values ahead:
IC50 (FAK recombinant protein),IC50 (PC3 cells [1]),IC50 (PC3 cells [2]),Compound
< 20 nM,> 2000 nM,5 to 50 nM,COc1cc(C(=O)NC2CCN(CS(C)(=O)=O)CC2)ccc1Nc1ncc(C(F)(F)F)c(Oc2cccc3c2C(=O)N(C)C32CC2)n1 [Compound 38]
< 20 nM,> 2000 nM,< 5 nM,COc1cc(C(=O)NC2CCN(CC(N)=O)CC2)ccc1Nc1ncc(C(F)(F)F)c(Oc2cccc3c2C(=O)N(C)C32CC2)n1 [Compound 39]
< 20 nM,> 2000 nM,< 5 nM,[2H]C([2H])([2H])N1CCC(NC(=O)c2cc(OC)c(Nc3ncc(C(F)(F)F)c(Oc4cccc5c4C(=O)N(C)C54CC4)n3)cc2F)CC1 [Compound 40]
< 20 nM,> 2000 nM,< 5 nM,CCN1CCC(NC(=O)c2cc(OC)c(Nc3ncc(C(F)(F)F)c(Oc4cccc5c4C(=O)N(C)C54CC4)n3)cc2F)CC1 [Compound 41]
< 20 nM,> 2000 nM,< 5 nM,[2H]C([2H])([2H])N1CCC(C)(NC(=O)c2ccc(Nc3ncc(C(F)(F)F)c(Oc4cccc5c4C(=O)N(C)C54CC4)n3)c(OC)c2)CC1 [Compound 42]
< 20 nM,> 2000 nM,< 5 nM,[2H]C([2H])([2H])N1CCC(C)(NC(=O)c2cc(OC)c(Nc3ncc(C(F)(F)F)c(Oc4cccc5c4C(=O)N(C)C54CC4)n3)cc2F)CC1 [Compound 43]
< 20 nM,> 2000 nM,5 to 50 nM,COc1cc(C(=O)NC2CC3(CCNCC3)C2)ccc1Nc1ncc(C(F)(F)F)c(Oc2cccc3c2C(=O)N(C)C32CC2)n1 [Compound 44]
< 20 nM,> 2000 nM,< 5 nM,[2H]C([2H])([2H])N1CCC2(CC1)CC(NC(=O)c1ccc(Nc3ncc(C(F)(F)F)c(Oc4cccc5c4C(=O)N(C)C54CC4)n3)c(OC)c1)C2 [Compound 45]
< 20 nM,> 2000 nM,5 to 50 nM,CCN1CCC2(CC1)CC(NC(=O)c1ccc(Nc3ncc(C(F)(F)F)c(Oc4cccc5c4C(=O)N(C)C54CC4)n3)c(OC)c1)C2 [Compound 46]
